According to patent US9579303B2, “Compositions containing polysaccharides” (DSM IP ASSETS B.V., priority 2005, dated 2017):

How the values were obtained:
[1] = Granule size distribution by sieve analysis; type: physicochemical
[2] = Flowability: time for 100 g to flow through an 11-mm funnel orifice; type: physicochemical; conditions: 100 g through an 11-mm orifice of a funnel
Method: The flowability was determined by the time needed to have 100 g of genistein crystals or genistein granules flowing through an 11-mm orifice of a funnel.

Granule Particle Size Distribution <150 μm ([1]; sieve fraction <150 μm): 7.2%
Granule Particle Size Distribution >150 μm ([1]; sieve fraction >150 μm): 28.2%
Granule Particle Size Distribution >250 μm ([1]; sieve fraction >250 μm): 50%
Granule Particle Size Distribution >425 μm ([1]; sieve fraction >425 μm): 14.5%
Granule Particle Size Distribution >600 μm ([1]; sieve fraction >600 μm): 0%
Granule Particle Size Distribution >800 μm ([1]; sieve fraction >800 μm): 0%
Granule Particle Size Distribution >850 μm ([1]; sieve fraction >850 μm): 0.1%
Flowability [2]: No flow
SMILES: O=c1c(-c2ccc(O)cc2)coc2cc(O)cc(O)c12 [Genistein crystal, genistein]
